# Laboratory results published in ChEMBL document CHEMBL1144330, “Novel pyrazinone mono-amides as potent and reversible caspase-3 inhibitors” (Bioorg Med Chem Lett, 2005).
# What was measured:
# Caspase-1 = molecular target: T1, Caspase-1 (Homo sapiens, UniProt P29466); test: Inhibitory concentration against recombinant human caspase-1 in neuronal precursor (NT2) cells
# T1 sequence (P29466 whole entry): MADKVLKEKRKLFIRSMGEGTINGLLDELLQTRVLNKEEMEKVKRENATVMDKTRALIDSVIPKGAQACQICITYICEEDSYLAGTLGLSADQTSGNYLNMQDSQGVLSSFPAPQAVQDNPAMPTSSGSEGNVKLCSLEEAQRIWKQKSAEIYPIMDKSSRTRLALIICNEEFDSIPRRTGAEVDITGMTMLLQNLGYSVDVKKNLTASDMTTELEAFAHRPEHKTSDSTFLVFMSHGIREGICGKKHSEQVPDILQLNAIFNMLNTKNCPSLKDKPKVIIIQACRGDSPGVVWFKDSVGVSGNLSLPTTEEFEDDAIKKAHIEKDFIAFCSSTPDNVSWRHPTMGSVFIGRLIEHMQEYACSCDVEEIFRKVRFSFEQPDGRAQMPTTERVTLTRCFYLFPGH
# Caspase-3 = molecular target: T2, Caspase-3 (Homo sapiens, UniProt P42574); test: Inhibitory concentration against recombinant human caspase-3 in neuronal precursor (NT2) cells
# T2 sequence (P42574 whole entry): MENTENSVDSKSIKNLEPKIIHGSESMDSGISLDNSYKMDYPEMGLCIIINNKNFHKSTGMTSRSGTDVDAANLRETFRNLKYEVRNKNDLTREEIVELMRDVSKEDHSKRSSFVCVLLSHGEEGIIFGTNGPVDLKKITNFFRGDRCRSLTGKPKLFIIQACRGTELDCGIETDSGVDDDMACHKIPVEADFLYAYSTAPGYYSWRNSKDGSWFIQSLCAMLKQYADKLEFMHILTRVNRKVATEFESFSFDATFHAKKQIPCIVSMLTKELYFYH
# Caspase-7 = molecular target: T3, Caspase-7 (Homo sapiens, UniProt P55210); test: Inhibitory concentration against recombinant human caspase-7 […]
# T3 sequence (P55210 whole entry): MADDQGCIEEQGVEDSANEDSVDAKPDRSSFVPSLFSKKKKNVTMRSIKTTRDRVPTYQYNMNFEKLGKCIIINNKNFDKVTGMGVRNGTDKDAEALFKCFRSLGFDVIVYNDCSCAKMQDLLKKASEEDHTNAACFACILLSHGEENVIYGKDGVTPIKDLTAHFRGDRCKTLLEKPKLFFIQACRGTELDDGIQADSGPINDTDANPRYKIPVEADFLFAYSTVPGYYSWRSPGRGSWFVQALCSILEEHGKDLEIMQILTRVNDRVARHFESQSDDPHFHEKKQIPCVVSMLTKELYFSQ
# Caspase-8 = Caspase-8 (Homo sapiens, UniProt Q14790); test: Inhibitory concentration against recombinant human caspase-8 […]
# NT2 = test: Inhibitory concentration against camptothecin induced apoptosis in neuronal precursor (NT2) whole cells; type: functional, cell-based; conditions: Homo sapiens
# [1] = Inhibitory concentration against etoposide induced apoptosis in mice cerebellar granule neurons; type: functional; conditions: Mus musculus
# Caspase-2 = molecular target: T4, Caspase-2 (Homo sapiens, UniProt P42575); test: Inhibitory concentration against casp-2 in neuronal precursor (NT2) cells
# T4 sequence (P42575 whole entry): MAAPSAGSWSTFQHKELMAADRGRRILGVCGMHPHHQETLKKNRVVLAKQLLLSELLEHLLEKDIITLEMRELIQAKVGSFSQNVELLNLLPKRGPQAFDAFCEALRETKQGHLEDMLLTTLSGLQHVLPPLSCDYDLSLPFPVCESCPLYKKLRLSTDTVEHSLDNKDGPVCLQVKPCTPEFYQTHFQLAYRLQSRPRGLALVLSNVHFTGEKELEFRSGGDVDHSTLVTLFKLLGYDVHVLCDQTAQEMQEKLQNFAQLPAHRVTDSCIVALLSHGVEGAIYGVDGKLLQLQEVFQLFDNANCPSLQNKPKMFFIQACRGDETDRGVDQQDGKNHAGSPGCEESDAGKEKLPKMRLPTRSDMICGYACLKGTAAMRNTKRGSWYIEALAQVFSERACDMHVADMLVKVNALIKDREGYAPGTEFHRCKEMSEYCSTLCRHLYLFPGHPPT
# Caspase-10 = molecular target: T5, Caspase-10 (Homo sapiens, UniProt Q92851); test: Inhibitory concentration against casp-10 in neuronal precursor (NT2) cells
# T5 sequence (Q92851 whole entry): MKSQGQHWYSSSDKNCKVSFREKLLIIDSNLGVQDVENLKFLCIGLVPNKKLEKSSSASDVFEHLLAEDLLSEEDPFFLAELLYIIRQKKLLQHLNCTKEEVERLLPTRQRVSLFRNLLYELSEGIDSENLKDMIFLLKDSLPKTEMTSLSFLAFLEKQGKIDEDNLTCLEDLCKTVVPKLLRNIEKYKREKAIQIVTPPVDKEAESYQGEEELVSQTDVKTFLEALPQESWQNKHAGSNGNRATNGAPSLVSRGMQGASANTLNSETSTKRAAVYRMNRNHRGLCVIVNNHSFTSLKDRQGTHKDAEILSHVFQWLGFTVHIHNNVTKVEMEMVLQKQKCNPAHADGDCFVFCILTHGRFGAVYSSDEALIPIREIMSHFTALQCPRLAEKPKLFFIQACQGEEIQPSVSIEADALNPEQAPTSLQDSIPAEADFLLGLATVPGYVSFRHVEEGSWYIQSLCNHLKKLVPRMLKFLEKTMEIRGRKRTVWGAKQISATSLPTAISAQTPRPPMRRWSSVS
# Caspase-4 = molecular target: T6, Caspase-4 (Homo sapiens, UniProt P49662); test: Inhibitory concentration against casp-4 in neuronal precursor (NT2) cells
# T6 sequence (P49662 whole entry): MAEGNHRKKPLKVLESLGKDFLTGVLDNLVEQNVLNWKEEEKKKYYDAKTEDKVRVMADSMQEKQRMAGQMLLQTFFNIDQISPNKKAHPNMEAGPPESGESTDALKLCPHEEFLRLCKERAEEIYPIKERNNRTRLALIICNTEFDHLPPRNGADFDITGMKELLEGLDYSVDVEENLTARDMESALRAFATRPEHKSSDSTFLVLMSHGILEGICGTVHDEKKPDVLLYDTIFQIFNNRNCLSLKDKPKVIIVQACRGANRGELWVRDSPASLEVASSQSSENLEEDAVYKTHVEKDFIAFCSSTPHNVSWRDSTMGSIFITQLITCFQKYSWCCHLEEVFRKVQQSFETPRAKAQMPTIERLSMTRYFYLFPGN
# Caspase-5 = molecular target: T7, Caspase-5 (Homo sapiens, UniProt P51878); test: Inhibitory concentration against casp-5 in neuronal precursor (NT2) cells
# T7 sequence (P51878 whole entry): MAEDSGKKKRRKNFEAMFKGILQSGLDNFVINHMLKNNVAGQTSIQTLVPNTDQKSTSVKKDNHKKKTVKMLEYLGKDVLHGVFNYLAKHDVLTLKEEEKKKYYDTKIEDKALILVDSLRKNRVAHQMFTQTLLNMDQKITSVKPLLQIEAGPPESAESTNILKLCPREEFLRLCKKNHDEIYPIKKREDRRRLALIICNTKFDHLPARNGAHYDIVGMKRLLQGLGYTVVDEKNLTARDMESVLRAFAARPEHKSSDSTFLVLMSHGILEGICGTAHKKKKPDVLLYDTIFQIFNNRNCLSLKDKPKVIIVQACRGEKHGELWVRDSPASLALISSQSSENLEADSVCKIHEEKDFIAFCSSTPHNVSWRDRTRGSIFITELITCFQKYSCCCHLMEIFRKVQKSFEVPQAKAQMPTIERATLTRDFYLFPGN
# Caspase-6 = molecular target: T8, Caspase-6 (Homo sapiens, UniProt P55212); test: Inhibitory concentration against casp-6 in neuronal precursor (NT2) cells
# T8 sequence (P55212 whole entry): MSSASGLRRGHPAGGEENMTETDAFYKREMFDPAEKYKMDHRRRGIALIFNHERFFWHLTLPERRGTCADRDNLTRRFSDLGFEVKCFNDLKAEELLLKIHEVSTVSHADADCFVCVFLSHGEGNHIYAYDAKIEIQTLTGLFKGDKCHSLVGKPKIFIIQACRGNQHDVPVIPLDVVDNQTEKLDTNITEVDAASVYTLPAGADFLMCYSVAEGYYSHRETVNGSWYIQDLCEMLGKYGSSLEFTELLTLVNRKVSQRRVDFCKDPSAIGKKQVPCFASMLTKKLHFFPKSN
# [2] = Inhibitory concentration against etoposide induced apoptosis in rat cortical neurons; type: functional
# [3] = Inhibitory concentration against cycloheximide induced cell death in human white blood cells in the absence of plasma proteins; type: functional, cell-based
# [4] = Inhibitory concentration against cycloheximide induced cell death in human white blood cells in the presence of plasma proteins; type: functional, cell-based
# Chain of Caspase-8 (Q14790 217-374 limits assumed): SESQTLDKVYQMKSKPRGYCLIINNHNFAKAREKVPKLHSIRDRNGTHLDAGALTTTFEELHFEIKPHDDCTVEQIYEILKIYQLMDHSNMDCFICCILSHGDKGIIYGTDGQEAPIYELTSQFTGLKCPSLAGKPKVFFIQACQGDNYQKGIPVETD
# Chain of Caspase-8 (Q14790 385-479 limits assumed): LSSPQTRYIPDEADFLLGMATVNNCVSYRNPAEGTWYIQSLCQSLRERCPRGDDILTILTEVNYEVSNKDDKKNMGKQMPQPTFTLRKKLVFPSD
Compound,IC50 (Caspase-1),IC50 (Caspase-3),IC50 (Caspase-7),IC50 (Caspase-8),IC50 (NT2),IC50 [1],Ki (Caspase-3),IC50 (Caspase-2),IC50 (Caspase-10),IC50 (Caspase-4),IC50 (Caspase-5),IC50 (Caspase-6),IC50 [2],IC50 [3],IC50 [4]
CCC(C(=O)N[C@@H](CC(=O)O)C(=O)CSCc1ccccc1)n1ccnc(NCc2noc(C)n2)c1=O (some centres undefined),1.08 µM,0.072 µM,> 10 µM,7.56 µM,8.06 µM,–,–,–,–,–,–,–,–,–,–
CCC(C(=O)N[C@@H](CC(=O)O)C(=O)CSCc1ccccc1)n1ccnc(NCCn2cncn2)c1=O (some centres undefined),1.93 µM,0.018 µM,9.71 µM,> 10 µM,5.74 µM,–,–,–,–,–,–,–,–,–,–
CCC(C(=O)N[C@@H](CC(=O)O)C(=O)CSCc1ccccc1)n1ccnc(NCCCN2CCCC2=O)c1=O (some centres undefined),1.9 µM,0.19 µM,> 10 µM,9.92 µM,50 µM,–,–,–,–,–,–,–,–,–,–
CCC(C(=O)N[C@@H](CC(=O)O)C(=O)CSCc1ccccc1)n1ccnc(NCc2nnc(-c3ccccc3)o2)c1=O (some centres undefined),0.98 µM,0.31 µM,> 10 µM,4.92 µM,52.1 µM,–,–,–,–,–,–,–,–,–,–

# Compounds with a lower IC50 (Caspase-1), results first:
IC50 (Caspase-1),IC50 (Caspase-3),IC50 (Caspase-7),IC50 (Caspase-8),IC50 (NT2),IC50 [1],Ki (Caspase-3),IC50 (Caspase-2),IC50 (Caspase-10),IC50 (Caspase-4),IC50 (Caspase-5),IC50 (Caspase-6),IC50 [2],Compound,IC50 [3],IC50 [4]
0.23 µM,0.051 µM,2.54 µM,3.3 µM,6.41 µM,–,–,–,–,–,–,–,–,CCC(C(=O)N[C@@H](CC(=O)O)C(=O)CSCc1ccccc1)n1ccnc(NCc2cc(C)no2)c1=O (some centres undefined),–,–
0.22 µM,0.088 µM,2.42 µM,2.73 µM,37.9 µM,–,–,–,–,–,–,–,–,CCC(C(=O)N[C@@H](CC(=O)O)C(=O)CSCc1ccccc1)n1ccnc(Nc2ccc3sc(C)nc3c2)c1=O (some centres undefined),–,–
0.19 µM,0.012 µM,0.49 µM,6.59 µM,3.42 µM,–,–,–,–,–,–,–,–,CCC(C(=O)N[C@@H](CC(=O)O)C(=O)CSCc1ccccc1)n1ccnc(NCc2cncs2)c1=O (some centres undefined),–,–
0.13 µM,0.026 µM,1.13 µM,1.75 µM,3.08 µM,–,–,–,–,–,–,–,–,CCC(C(=O)N[C@@H](CC(=O)O)C(=O)CSCc1ccccc1)n1ccnc(NCc2nccs2)c1=O (some centres undefined),–,–
0.11 µM,–,0.09 µM,4.03 µM,0.027 µM,0.06 µM,0.0014 µM,> 10 µM,29.5 µM,0.5 µM,0.81 µM,3.44 µM,0.06 µM,CCCCCN(C)CC(=O)C(CC(=O)O)NC(=O)C(CC)n1cc(C(C)(C)C)nc(NCc2nonc2C)c1=O (centres undefined),0.04 µM,0.7 µM
